According to PubChem BioAssay (NCI):
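Dose response: 5 concentrations. Exposure: 48 h. Format: 96-well plates. Endpoint: linear interpolation; highest concentration if not reached. TGI: total growth inhibition.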

How the values were obtained:
Test in all cases: NCI-60 cell line screen, 48 h
[1] = tested on: 786-0 renal
[2] = tested on: EKVX NSCLC
[3] = tested on: UACC-62 melanoma
[4] = tested on: RXF 393 renal
[5] = tested on: DLD-1 colon
[6] = tested on: UACC-257 melanoma
[7] = tested on: XF 498 CNS
[8] = tested on: CCRF-CEM leukemia
[9] = tested on: SN12C renal
[10] = tested on: SK-MEL-28 melanoma
[11] = tested on: SF-539 CNS
[12] = tested on: ACHN renal
[13] = tested on: IGROV1 ovarian
[14] = tested on: HT29 colon
[15] = tested on: A549 NSCLC
[16] = tested on: SW-620 colon
[17] = tested on: OVCAR-4 ovarian
[18] = tested on: HL-60(TB) leukemia
[19] = tested on: M14 melanoma
[20] = tested on: M19-MEL melanoma
[21] = tested on: U251 CNS
[22] = tested on: SNB-75 CNS
[23] = tested on: NCI-H522 lung
[24] = tested on: DMS 273 small cell lung
[25] = tested on: SF-295 CNS
[26] = tested on: HOP-62 NSCLC
[27] = tested on: SK-OV-3 ovarian
[28] = tested on: COLO 205 colon
[29] = tested on: SNB-78 CNS
[30] = tested on: OVCAR-8 ovarian
[31] = tested on: KM20L2 colon
[32] = tested on: A498 renal
[33] = tested on: RPMI-8226 leukemia
[34] = tested on: HCC-2998 colon
[35] = tested on: UO-31 renal
[36] = tested on: K-562 leukemia
[37] = tested on: HOP-18 NSCLC
[38] = tested on: SF-268 CNS
[39] = tested on: SK-MEL-5 melanoma
[40] = tested on: MALME-3M melanoma
[41] = tested on: SR leukemia
[42] = tested on: SNB-19 CNS
[43] = tested on: NCI-H23 lung
[44] = tested on: HCT-15 colon
[45] = tested on: HCT-116 colon
[46] = tested on: LXFL 529 NSCLC
[47] = tested on: HOP-92 NSCLC
[48] = tested on: NCI-H226 lung
[49] = tested on: MOLT-4 leukemia
[50] = tested on: CAKI-1 renal
[51] = tested on: OVCAR-5 ovarian
[52] = tested on: KM12 colon
[53] = tested on: TK-10 renal
[54] = tested on: NCI-H460 lung
[55] = tested on: LOX IMVI melanoma
[56] = tested on: SK-MEL-2 melanoma
[57] = tested on: OVCAR-3 ovarian

COc1ccc2c3ccc4c(c3n(C)c2c1)C(=O)C=CC4=O was tested, and the TGI [1] was 32.9 µM, the TGI [2] was over 100 µM and the TGI [3] was over 100 µM. For the same molecule, the TGI [4] was 37.5 µM, the TGI [5] was 30.2 µM and the TGI [6] was over 100 µM. It also gave a TGI [7] of 52.5 µM, a TGI [8] of 49.9 µM and a TGI [9] of over 100 µM. For the same molecule, the TGI [10] was over 100 µM, the TGI [11] was 52.8 µM and the TGI [12] was 59.6 µM. For the same molecule, the TGI [13] was over 100 µM, the TGI [14] was over 100 µM and the TGI [15] was over 100 µM. The TGI [16] was 30.6 µM, the TGI [17] was 92.5 µM and the TGI [18] was 19.8 µM. It also gave a TGI [19] of over 100 µM, a TGI [20] of 46.2 µM and a TGI [21] of over 100 µM. For the same molecule, the TGI [22] was over 100 µM, the TGI [23] was 22.4 µM and the TGI [24] was over 100 µM. It also gave a TGI [25] of over 100 µM, a TGI [26] of over 100 µM and a TGI [27] of over 100 µM. It also gave a TGI [28] of over 100 µM, a TGI [29] of over 100 µM and a TGI [30] of 33.2 µM. The TGI [31] was over 100 µM, the TGI [32] was over 100 µM and the TGI [33] was 48.4 µM. It also gave a TGI [34] of over 100 µM, a TGI [35] of 90.3 µM and a TGI [36] of 26.6 µM. For the same molecule, the TGI [37] was over 100 µM, the TGI [38] was over 100 µM and the TGI [39] was over 100 µM. The TGI [40] was over 100 µM, the TGI [41] was 22.2 µM and the TGI [42] was over 100 µM. It also gave a TGI [43] of over 100 µM, a TGI [44] of over 100 µM and a TGI [45] of 48.4 µM. For the same molecule, the TGI [46] was 28.6 µM, the TGI [47] was 32.3 µM and the TGI [48] was over 100 µM. It also gave a TGI [49] of 13.6 µM.
For O/N=C(\C(=N/O)Nc1ccc(-c2ccc(NC(=N/O)/C(=N\O)c3ccccc3)cc2)cc1)c1ccccc1, the TGI [1] was 41.4 µM, the TGI [2] was 57.9 µM and the TGI [3] was 35.4 µM. The TGI [5] was 53.8 µM, the TGI [6] was 80.6 µM and the TGI [7] was 41.3 µM. It also gave a TGI [8] of 46.3 µM, a TGI [9] of 97.3 µM and a TGI [11] of 35.3 µM. It also gave a TGI [12] of 97.2 µM, a TGI [13] of 57.6 µM and a TGI [50] of 62.9 µM. The TGI [14] was 29.2 µM, the TGI [15] was 79.1 µM and the TGI [16] was 49.8 µM. It also gave a TGI [18] of 55.6 µM, a TGI [19] of 32.8 µM and a TGI [20] of 31.4 µM. For the same molecule, the TGI [21] was 60.9 µM, the TGI [23] was 33.3 µM and the TGI [24] was 36.3 µM. It also gave a TGI [25] of 37.4 µM, a TGI [26] of 30.1 µM and a TGI [27] of 33.8 µM. For the same molecule, the TGI [28] was 30.4 µM, the TGI [29] was 97.4 µM and the TGI [51] was 27.5 µM. It also gave a TGI [52] of 33.6 µM, a TGI [30] of 45 µM and a TGI [31] of 36.5 µM. For the same molecule, the TGI [32] was 51 µM, the TGI [33] was 57.9 µM and the TGI [34] was 18.7 µM. For the same molecule, the TGI [53] was 82.4 µM, the TGI [35] was 82.9 µM and the TGI [36] was 44 µM. For the same molecule, the TGI [37] was 37.3 µM, the TGI [38] was 69.2 µM and the TGI [54] was 32.4 µM. It also gave a TGI [55] of 29.1 µM, a TGI [39] of 34.8 µM and a TGI [40] of 44.7 µM. For the same molecule, the TGI [42] was 50.7 µM, the TGI [43] was 32.1 µM and the TGI [44] was 70 µM. It also gave a TGI [45] of 34.6 µM, a TGI [46] of 32.2 µM and a TGI [56] of 36.3 µM. It also gave a TGI [47] of 58.1 µM, a TGI [48] of 69.2 µM and a TGI [49] of 41.3 µM. The TGI [57] was 40.2 µM.
